{"source": "patent US5866682A", "about": "(priority 1997, dated 1999)", "origin": "cited, not measured here", "test_system": "α3β2 and α3β4 receptors"}
{"substance": "α-conotoxin MII", "values": [{"measurement": "binding sites and toxin molecules required to block function", "value": "has two binding sites on α3β2 and α3β4 receptors expressed in Xenopus oocytes and only one toxin molecule is required to block function"}, {"measurement": "block of native nAChRs", "value": "blocks native α3β2-containing nAChRs and α3β4 conataining nAChRs"}, {"measurement": "discrimination between the α3β2 and α3β4 interface", "value": "four orders-of-magnitude"}]}
